Numbers after ± are expanded uncertainties.
How the values were obtained:
[1] = refractive index (Na D-line) (dimensionless); settings: 298.15 K; 101.33 kPa; Liquid; Standard Abbe refractometry
[2] = Liquid; for mass density / speed of sound: 298.15 K, 101.33 kPa
[3] = xn = mol fraction of the nth substance listed; settings: 298.15 K, 101 kPa, Liquid
[4] = refractive index (Na D-line) (dimensionless); xn = mol fraction of the nth substance listed; settings: 298.15 K, 101 kPa, Liquid, Standard Abbe refractometry

CCO [ethanol]
Settings | mass density [kg/m3] | refractive index | speed of sound [m/s]
[1] | – | 1.35916 ± 0.00072 | –
[2] | 785.36 ± 0.48 | – | 1143.1 ± 1.6

Settings | vapor or sublimation pressure [kPa]
[2], 351.5 K | 101.3 ± 1.1

CCCCCO [pentan-1-ol]
Settings | mass density [kg/m3] | refractive index | speed of sound [m/s]
[1] | – | 1.4077 ± 0.00072 | –
[2] | 810.96 ± 0.44 | – | 1273.3 ± 1.8

Settings | vapor or sublimation pressure [kPa]
[2], 410.59 K | 101.3 ± 1.1

CC(C)CO [2-methyl-1-propanol] + CCOC(C)=O
Settings | refractive index, [4] | speed of sound, [3] [m/s]
x2 = 0.052 | 1.39253 ± 0.00072 | 1186.1 ± 1.7
x2 = 0.104 | 1.39136 ± 0.00072 | 1184.4 ± 1.7
x2 = 0.155 | 1.39012 ± 0.00072 | 1182.9 ± 1.7
x2 = 0.206 | 1.3889 ± 0.00072 | 1181.5 ± 1.7
x2 = 0.258 | 1.38753 ± 0.00072 | 1179.3 ± 1.7
x2 = 0.308 | 1.38611 ± 0.00072 | 1177.5 ± 1.7
x2 = 0.359 | 1.3847 ± 0.00072 | 1175.6 ± 1.7
x2 = 0.41 | 1.3833 ± 0.00072 | 1174.2 ± 1.7
x2 = 0.46 | 1.38169 ± 0.00072 | 1171.3 ± 1.7
x2 = 0.51 | 1.3803 ± 0.00072 | 1169 ± 1.6
x2 = 0.56 | 1.37842 ± 0.00072 | 1165.2 ± 1.6
x2 = 0.609 | 1.37674 ± 0.00072 | 1163 ± 1.6
x2 = 0.659 | 1.37505 ± 0.00072 | 1160.4 ± 1.6
x2 = 0.708 | 1.37301 ± 0.00072 | 1158.2 ± 1.6
x2 = 0.757 | 1.37111 ± 0.00072 | 1155.3 ± 1.6
x2 = 0.806 | 1.36884 ± 0.00072 | 1152.8 ± 1.6
x2 = 0.855 | 1.36675 ± 0.00072 | 1150.1 ± 1.6
x2 = 0.904 | 1.36431 ± 0.00072 | 1147.4 ± 1.6
x2 = 0.952 | 1.36189 ± 0.00072 | 1144.7 ± 1.6
